# Measured values from ChEMBL document CHEMBL3603776, “2-Phenoxy-1,4-naphthoquinones: From a Multitarget Antitrypanosomal to a Potential Antitumor Profile” (J Med Chem, 2015).
# The source made the active and inactive calls. The calls are words filed in the database; no cut-off is given here.
# Experiments:
# Bos taurus [1] = species: Bos taurus; experiment: Inhibition of electron transport protein complex 1 in bovine hear mitochondria assessed as reduction of NADH-induced ROS production at 10 uM by fluorescence plate reader analysis
# Bos taurus [2] = species: Bos taurus; experiment: Inhibition of electron transport protein complex 1 in bovine hear mitochondria assessed as reduction of NADH-induced oxygen consumption at 5 uM
# [3] = target: Glyceraldehyde-3-phosphate dehydrogenase (Homo sapiens, UniProt P04406); experiment: Inhibition of recombinant human GAPDH assessed as oxidative phosphorylation of D-glyceraldehyde-3-phosphate to 1,3-bisphosphoglycerate by spectrophotometric method
# Trypanosoma brucei = experiment: Inhibition of recombinant Trypanosoma brucei GAPDH assessed as oxidative phosphorylation of D-glyceraldehyde-3-phosphate to 1,3-bisphosphoglycerate at 5 uM by spectrophotometric method relative to 2-phenoxy-1,4-naphthoquinone
# [4] = Selectivity index, ratio of IC50 for rat L6 cells to IC50 for bloodstream forms of Trypanosoma brucei rhodesiense STIB 900; format: toxicity, cell-based; settings: read-out: Ratio IC50
# HT-29 [5] = experiment: Cytotoxicity against human HT-29 cells after 24 hrs by MTT assay; format: functional, cell-based; settings: HT-29, 24 h
# L6 = experiment: Cytotoxicity against rat L6 cells after 72 hrs by alamar blue assay; format: cell-based; settings: L6, 72 h
# [6] = Inhibition of recombinant Trypanosoma brucei GAPDH assessed as oxidative phosphorylation of D-glyceraldehyde-3-phosphate to 1,3-bisphosphoglycerate by spectrophotometric method
# [7] = Cytotoxicity against HDF after 24 hrs by MTT assay; settings: Homo sapiens
# [8] = tested on: Trypanosoma brucei rhodesiense; experiment: Antitrypanosomal activity against bloodstream forms of Trypanosoma brucei rhodesiense STIB 900 after 72 hrs by alamar blue assay; format: functional, organism-based; settings: STIB 900, 72 h
# HT-29 [9] = experiment: Selectivity index, ratio of IC50 for HDF to IC50 for human HT-29 cells
# [10] = Selectivity index, ratio of IC50 for rat L6 cells to IC50 for amastigotes of Leishmania donovani MHOM/ET/67/L82; format: toxicity, cell-based; settings: read-out: Ratio IC50
# IGROV-1 [11] = experiment: Selectivity index, ratio of IC50 for HDF to IC50 for human IGROV1 cells
# Bos taurus [12] = species: Bos taurus; experiment: Inhibition of electron transport protein complex 2 in bovine hear mitochondria assessed as reduction of succinate-induced oxygen consumption at 5 uM
# Leishmania donovani = experiment: Antitrypanosomal activity against amastigotes of Leishmania donovani MHOM/ET/67/L82 after 72 hrs by inverted microscope analysis; format: functional, organism-based; settings: MHOM/ET/67/L82, 72 h
# Bos taurus [13] = species: Bos taurus; experiment: Inhibition of electron transport protein complex 1 in bovine hear mitochondria assessed as enzyme activity per min/mg of protein using […] as substrate at 10 uM
# IGROV-1 [14] = experiment: Cytotoxicity against human IGROV1 cells after 24 hrs by MTT assay; format: functional, cell-based; settings: IGROV-1, 24 h
# Bos taurus [15] = species: Bos taurus; experiment: Inhibition of electron transport protein complex 1 in bovine hear mitochondria assessed as reduction of NADH-induced oxygen consumption up to 10 uM
# Glyceraldehyde-3-phosphate dehydrogenase, sequence (P04406 whole entry): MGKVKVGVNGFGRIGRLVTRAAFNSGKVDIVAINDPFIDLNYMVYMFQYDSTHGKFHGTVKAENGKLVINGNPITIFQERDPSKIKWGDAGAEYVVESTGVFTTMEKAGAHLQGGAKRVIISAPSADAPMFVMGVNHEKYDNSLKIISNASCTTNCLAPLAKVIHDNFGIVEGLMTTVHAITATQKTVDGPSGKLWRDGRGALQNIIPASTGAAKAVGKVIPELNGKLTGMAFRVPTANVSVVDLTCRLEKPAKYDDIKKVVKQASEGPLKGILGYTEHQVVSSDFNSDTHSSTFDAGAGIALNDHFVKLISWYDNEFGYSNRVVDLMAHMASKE
SMILES,inhibition (Bos taurus [1]),inhibition (Bos taurus [2]) [%],IC50 [3] [µM],inhibition (Trypanosoma brucei) [%],selectivity ratio [4],IC50 (HT-29 [5]) [µM],IC50 (L6) [µM],IC50 [6] [µM],IC50 [7] [µM],IC50 [8] [µM],Ratio IC50 (HT-29 [9]),selectivity ratio [10],Ratio IC50 (IGROV-1 [11]),inhibition (Bos taurus [12]),IC50 (Leishmania donovani) [µM],Activity (Bos taurus [13]) [µmol/min/mg],IC50 (IGROV-1 [14]) [µM],inhibition (Bos taurus [15])
COc1ccc(OC2=CC(=O)c3cc4ccccc4cc3C2=O)cc1,Active,40,1.41,92,0.63,3.83,0.24,15.6,17.1,0.38,4.46,0.09,7.4,inactive,2.55,0.029,2.31,
O=C1C=C(Oc2ccccc2)C(=O)c2ccccc21,Active,,0.59,,,4.4,,5.73,9.84,,2.24,,2.87,,,0.052,3.43,inactive
